Measured values: US20250020650A1, “METHOD OF PREDICTING A PATIENT'S BENEFIT FROM THERAPY WITH AN IMMUNE CHECKPOINT INHIBITOR” (EBERHARD KARLS UNIVERSITAET TUEBINGEN MEDIZINISCHE FAKULTAET, priority 2021, published 2025)

Experiments:
platelets = experiment: Controlled platelet stimulation, flow cytometry of pPD-L1; type: cell-based, human; conditions: 10 μM TRAP-6, 2.5 μM ADP or 5 μg/mL collagen for 2 minutes, NSCLC patient platelets
Experimental: Platelets were obtained from healthy donors (not taking any medication for at least 10 days) and NSCLC patients after informed writing consent. Citrated blood was briefly centrifuged for 20 min at 120×g, the upper fraction was harvested as platelet-rich plasma (PRP). Platelets were washed twice with citrate wash buffer (128 mmol/L NaCl, 11 mmol/L glucose, 7.5 mmol/L Na2HPO4, 4.8 mmol/L sodium citrate, 4.3 mmol/L NaH2PO4, 2.4 citric acid, 0.35% bovine serum albumin, and 50 ng/ml prostaglandin E1 (PGE1)). […] For platelet activation 10 μM of the Thrombin Receptor Activator Peptide 6 (TRAP-6), a protease-activated receptor 1 (PAR1) agonist, 2.5 μM ADP or 5 μg/mL Collagen was added to the platelets for 2 minutes. Platelets were fixed by 2% paraformaldehyde for 10 min and washed twice with PBS containing 1% FCS.
Flow cytometry was performed using fluorescence-conjugates or specific mAb and their controls followed by species-specific conjugate (Table 2) using a FACS Cantoll flow cytometer […] or a LSRFortessa (Becton Dickinson) from the flow cytometer facility Tuebingen.
Positive cells in percentage (%) were calculated as follows: Surface expression in percent obtained with the specific antibody—surface expression in percent obtained with isotype control. Platelets were preselected by CD41a^+ and CD62P^− (resting) or CD62P^+ (activated). Data analysis was performed using FlowJo software (v.10). In order to verify the reproducibility of the inventors' flow cytometry system, the inventors performed a Bland-Altman analysis (FIG. 11 f). For immunophenotyping of PBMC subsets of lung cancer patients and healthy control donors were identified by counterstaining with CD3-PECy5 (BD biosciences, San Diego, CA), CD19-APC/Fire750, CD4-Pacific Blue, CD8a-BV605, CD56-PECy7, CD14-BV785, HLA-DR-BV650 (Biolegend, San Diego, CA) and CD16-FITC (Invitrogen). PD-1 and PDL-1 expression as well as activation levels were analyzed using a PD-1-APC or PDL-1-APC and a CD69-PE antibody (BD biosciences), respectively. Isotype controls were obtained from BD biosciences. […]

[1] = tested on: platelet adhesion to fibronectin; experiment: Platelet adhesion to fibronectin-coated surface with platelet-blocking agents; type: cell-based, human; conditions: washed platelets pretreated 30 minutes at 37° C.; 5 μg/mL anti-CD42b, 20 μg/mL anti-integrin β1 and anti-Integrin α5, 1 μg/mL Tirofiban
Experimental: To prepare fibronectin matrices, plates were coated with a human plasma fibronectin purified protein (R&D, Minneapolis, MN, USA), (concentration 50 μg/cm^2) for 120 min. For blocking of GPIb-IX-V complex, α5β1 or GPIIbIIIa, washed platelets (8×10^7/mL) were pretreated with 5 μg/mL anti-CD42b (clone: AK2), 20 μg/mL anti-integrin β1 (clone: P4C10) and anti-Integrin α5 (clone: JBS5), 1 μg/mL Tirofiban or corresponding control IgG1 (20 μg/mL) for 30 minutes at 37° C. and 7% CO2. After co-incubation with platelets (8×10^7/mL) for 30 min at 37° C. and 7% CO2, non-adherent platelets were removed via three washing steps using PBS. After removal of non-adherent platelets cells were fixed in 2% PFA in PBS (pH 7.4) for 10 min at −20° C. Platelet adhesion to fibronectin fibrils was evaluated by calculating surface coverage area and platelet count/FoV and from microscopic images using an ImageJ script (v. 1.52).

[2] = tested on: protein translation in platelets; experiment: PD-L1 on cycloheximide pre-treated platelets after co-incubation with PD-L1-GFP transfected A549 cells; type: cell-based, human; conditions: platelets pre-treated with 100 μM cycloheximide
Experimental: Tumor cells were coated with platelets as described previously with slight modifications. Briefly summarized, PRP was obtained from fresh whole blood by centrifugation for 20 minutes at 120 g. Platelets were washed twice with citrate wash buffer (128 mmol/L NaCl, 11 mmol/L glucose, 7.5 mmol/L Na2HPO4, 4.8 mmol/L sodium citrate, 4.3 mmol/L NaH2PO4, 2.4 citric acid, 0.35% bovine serum albumin). In some experiments platelets were pretreated with 5 μg/mL anti-CD42b (clone: AK2), 20 μg/mL anti-integrin β1 (clone: P4C10) and anti-Integrin α5 (clone: JBS5) or corresponding control IgG1 (20 μg/mL) for 30 minutes at 37° C. and 7% CO2. Tumor cells were incubated in platelets at a platelet-tumor cell ratio of […] for 30 minutes at 37° C. and 7% CO2. For immunofluorescence microscopy and FACS analysis cells were fixed in 2% PFA in PBS (pH 7.4) for 10 min at −20° C. prior staining.
For overexpression of PD-L1 (CD274) a True-ORF-GFP-tagged expression vector was used (OriGene Technologies, Rockville, MD, USA). Control cells were transfected using a FLAG tag. The FLAG cDNA was generated by PCR and cloned into the PD-L1-GFP vector using AsiSI and MluI restriction sites. Tumor cells were transfected with 2.5 μg DNA (PD-L1-GFP, FLAG-GFP) using Lipofectamine™ 3000, in accordance to the manufacturer's instructions.

PD-L1 on platelets [3] = target: T1, PD-L1 on platelets (Homo sapiens, UniProt Q9NZQ7); experiment: IFNγ ELISPOT and cytokine staining of EBV/CMV peptide-stimulated T cells co-incubated with PD-L1 positive platelets; type: cell-based; conditions: platelets from NSCLC patients pre-treated 30 min, EBV/CMV-derived peptides, IFNγ and TNFα
T1 construct: PD-L1 positive platelets from NSCLC patients were pre-treated with the anti-PD-L1 mAB Atezolizumab; endogenous in cells; host or cells: platelets from the peripheral blood of NSCLC patients
Experimental: Freshly thawed (ex vivo) PBMCs from healthy donors were analyzed by enzyme-linked immunospot (ELISPOT) assay in duplicates. Interferon γ (IFNγ) ELISPOT assays in the inventors' study were performed as described previously. In brief, 96-well nitrocellulose plates (Millipore) were coated with 1 mg/mL anti-IFNγ mAb (Mabtech) and incubated overnight at 4° C. In a next step, plates were blocked with human serum (10%) for 2 hours at 37° C. PBMCs (2.5×10^5 cells per well) were pulsed with an EBV/CMV epitope mix containing the frequently recognized peptides BRLF109-117 […] (SEQ ID NO: 11) (A*02) peptide and CMV pp65 (A*02) peptide NLVPMVATV (SEQ ID NO: 12) and incubated with or without platelets (ratio 1:50) for 24 hours. Phytohemagglutinin was used as positive control. HLA-A*02 (KLFEKVKEV (SEQ ID NO: 13))- and B*07 (KPSEKIQVL (SEQ ID NO: 14))-restricted control peptides derived from benign tissues (HV-exclusive HLA ligands) served as negative control. […] Readout was performed according to the manufacturer's instructions. Spots were counted using an ImmunoSpot S5 analyzer (CTL).
Peptide-specific T cells were further analyzed by intracellular cytokine and cell surface marker staining. […] Viable cells were determined using Aqua live/dead (1:400 dilution, Invitrogen). Samples were analyzed on a FACS Canto II cytometer (BD) and evaluated using FlowJo software v. […]

PD-L1 on platelets [4] = target: T1, PD-L1 on platelets; experiment: NY-ESO-1 specific CD4+ TEM co-incubated with PD-L1 positive platelets (IFNγ and TNFα); type: cell-based; conditions: pPD-L1 positive platelets pre-treated with Atezolizumab 100 μg/mL for 30 min, NY-ESO-1 peptides
Experimental: The generation of NY-ESO-1-specific T cells was performed using as described previously. In brief, PBMCs from a healthy donor (1×10^7/mL) were stimulated using pools of NY-ESO-1 overlapping peptides (1 μg/mL). The NY-ESO-1 overlapping peptide pool of 15 amino acid length (11 amino acid overlap) was purchased via Miltenyi Biotec. The cells were cultured in RPMI 1640 containing 10% human AB-serum and 1% L-glutamin in the presence of 10 U/mL recombinant IL-2 and 10 ng/ml II-7. Culture medium was replaced every third day. After a pre-sensitization period of 7-14 days, NY-ESO-1 specific, IFNγ^+ T cells were enriched after re-stimulation with NY-ESO-1 peptide pool for 6 h using CliniMACS® (Miltenyi Biotec) technique as reported previously. After enrichment, NY-ESO-1 specific T cells were expanded for 14 days in the presence of IL-7 (10 ng/ml), IL-15 (10 ng/mL) and IL-2 (50 U/mL). T cell specificity was analyzed via intracellular IFNγ staining as stated above. For further characterization of the T-cells the differentiation markers anti-CD45RO, mouse (1:200, clone: HI100), anti-CD62L, mouse (1:400, clone: DREG-56), anti-CD28, mouse (1:200, clone: CD28.2) and anti-CD27, mouse (1:200, clone: M-T271) were co-analyzed by flow cytometry. […] NY-ESO-1 specific T cell activity was determined by intracellular TNFα and IFNγ quantified via flow cytometry as described above.

T1 sequence (Q9NZQ7 19-290): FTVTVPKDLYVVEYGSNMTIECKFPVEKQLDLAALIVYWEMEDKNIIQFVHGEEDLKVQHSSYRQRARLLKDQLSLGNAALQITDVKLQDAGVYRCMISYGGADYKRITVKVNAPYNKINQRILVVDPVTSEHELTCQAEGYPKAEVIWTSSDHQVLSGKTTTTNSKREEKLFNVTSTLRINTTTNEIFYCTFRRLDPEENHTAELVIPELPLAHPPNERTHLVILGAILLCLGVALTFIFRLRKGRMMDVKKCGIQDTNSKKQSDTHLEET

Compound: Nc1ncnc2c1ncn2[C@@H]1O[C@H](COP(=O)(O)OP(=O)(O)O)[C@@H](O)[C@H]1O [ADP]
- pPD-L1 expression on the platelet surface upon platelet stimulation (platelets): maximized

Compound: CCCCS(=O)(=O)N[C@@H](Cc1ccc(OCCCCC2CCNCC2)cc1)C(=O)O [Tirofiban]
- platelet adhesion to fibronectin [1]: only marginally reduced

Compound: C[C@@H]1C[C@@H]([C@H](O)CC2CC(=O)NC(=O)C2)C(=O)[C@@H](C)C1 [cycloheximide]
- PD-L1-GFP expression in platelets [2]: did not result in a reduction

Compound: Atezolizumab
- T cell inhibitory effect of PD-L1 expressing platelets (PD-L1 on platelets [3]): abolished
- T cell (CD4+ TEM) activity, IFNγ and TNFα release (PD-L1 on platelets [4]): restored

Compound: Thrombin Receptor Activator Peptide 6 [TRAP-6]
- pPD-L1 expression on the platelet surface upon platelet stimulation (platelets): maximized

Compound: collagen
- pPD-L1 expression on the platelet surface upon platelet stimulation (platelets): maximized
